Measurements published in US20250059187A1, “COVALENTLY BINDING INHIBITORS OF G12S, G12D AND/OR G12E MUTANTS OF K-RAS GTPASE” (The Regents of the University of California, priority 2021, published 2025).

Key:
Format in all cases: binding
K-Ras(G12S) = K-Ras(G12S) (Homo sapiens, UniProt P01116, G12S); assay: Covalent modification of recombinant K-Ras(G12S) by whole-protein mass spectrometry; set-up: human K-Ras (G12S, aa 1-169); 6xHis tag + TEV cleavage site (N, cleaved yes); made in house; host or cells: E. coli BL21(DE3); settings: 24-h incubation, 100 μM compound, 23° C., pH 7.5
Experimental: (§1) Test compounds were prepared as 100× stock solutions in DMSO. K-Ras proteins were diluted with SEC Buffer (20 mM HEPES 7.5, 150 mM NaCl, 1 mM MgCl2) to 400 nM or 1 μM. In a typical reaction, 0.5 μL 100× compound stock was mixed with 50 μL diluted K-Ras protein, and the resulting mixture was incubated for the desired amount of time. The extent of modification was assessed by electrospray mass spectrometry using a Waters Xevo G2-XS system equipped with an Acquity UPLC BEH C4 1.7 μm column. […] For kinetic measurements, a 2× compound solution was first prepared in SEC Buffer, which was then mixed with 400 nM K-Ras(G12S) protein at 1:1 (v/v) ratio. Injection time stamps were used to calculate elapsed time.
as §1, with “K-Ras(G12D)” for “K-Ras(G12S)”

wild type K-Ras [1] = molecular target: T1, wild type K-Ras (Homo sapiens, UniProt P01116); assay: Covalent modification of test protein after incubation with compound; settings: 24-h incubation with 100 μM compound at 23° C. at pH 7.5
T1 construct: human K-Ras (wildtype, aa 1-169); 6xHis tag + TEV cleavage site (N, cleaved yes); made in house; host or cells: E. coli BL21(DE3)

wild type K-Ras [2] = molecular target: T1, wild type K-Ras; assay: Covalent modification of recombinant wild-type K-Ras by whole-protein mass spectrometry; settings: 24-h incubation, 100 μM compound, 23° C., pH 7.5
Experimental: (§2) Test compounds were prepared as 100× stock solutions in DMSO. K-Ras proteins were diluted with SEC Buffer (20 mM HEPES 7.5, 150 mM NaCl, 1 mM MgCl2) to 400 nM or 1 μM. In a typical reaction, 0.5 μL 100× compound stock was mixed with 50 μL diluted K-Ras protein, and the resulting mixture was incubated for the desired amount of time. The extent of modification was assessed by electrospray mass spectrometry using a Waters Xevo G2-XS system equipped with an Acquity UPLC BEH C4 1.7 μm column. The mobile phase was a linear gradient of 5-95% acetonitrile/water+0.05% formic acid. For kinetic measurements, a 2× compound solution was first prepared in SEC Buffer, which was then mixed with 400 nM K-Ras(G12S) protein at 1:1 (v/v) ratio. Injection time stamps were used to calculate elapsed time.
as §2, with “K-Ras(G12D)” for “K-Ras(G12S)”

K-Ras G12D = molecular target: T2, K-Ras G12D (Homo sapiens, UniProt P01116, G12D); assay: Covalent modification of test protein after incubation with compound; settings: 24-h incubation with 100 μM compound at 23° C. at pH 7.5
T2 construct: human K-Ras (G12D, aa 1-169); 6xHis tag + TEV cleavage site (N, cleaved yes); made in house; host or cells: E. coli BL21(DE3)

K-Ras G12E = molecular target: T3, K-Ras G12E (Homo sapiens, UniProt P01116, G12E); assay: as above; settings: 24-h incubation with 100 μM compound at 23° C. at pH 7.5
T3 construct: human K-Ras (G12E, aa 1-169); 6xHis tag + TEV cleavage site (N, cleaved yes); made in house; host or cells: E. coli BL21(DE3)

| % covalent modification of K-Ras G12S (K-Ras(G12S)) [%] | % covalent modification of wild type K-Ras (wild type K-Ras [1]) [%] | % covalent modification of wild type K-Ras (wild type K-Ras [2]) [%] | % covalent modification of K-Ras G12D (K-Ras G12D) [%] | % covalent modification of K-Ras G12E (K-Ras G12E) [%] | SMILES |
| --- | --- | --- | --- | --- | --- |
| 19.0 | 0 | 0 | 0 | 0 | CN1CCC[C@@H]1COc1nc2c(c(N3CC[C@@]4(C)C(=O)O[C@H]4C3)n1)CCN(c1cccc3cccc(Cl)c13)C2 [Compound 12-028] |
| 0 | 0 | 0 | 0 | 0 | CN1CCC[C@@H]1COc1nc2c(c(N3CCC4(CC3)CN(S(=O)(=O)O)C4=O)n1)CCN(c1cccc3cccc(Cl)c13)C2 [Compound 12-087] |
| 0 | 0 | 0 | 0 | 0 | CN1CCC[C@@H]1COc1nc2c(c(N3CC[C@H]4OC(=O)[C@@]4(C)C3)n1)CCN(c1cccc3cccc(Cl)c13)C2 [Compound 12-044] |
| 0 | 0 | 0 | 0 | 0 | CN1CCC[C@@H]1COc1nc2c(c(N3CCC4(CC3)CC(=O)O4)n1)CCN(c1cccc3cccc(Cl)c13)C2 [Compound 13-006] |
| 0 | 0 | 0 | 0 | 0 | CN1CCC[C@@H]1COc1nc2c(c(N3CCC4(CC3)CNC4=O)n1)CCN(c1cccc3cccc(Cl)c13)C2 [Compound 12-064] |
| – | 22.6 | – | 17.7 | 18.5 | Cc1ccc2[nH]ncc2c1-c1cc2ncnc(N3CC(C(=O)N[C@@H]4COC4=O)C3)c2cc1Cl [Compound 03-100] |
| 0 | 0 | 0 | 0 | 0 | CN1CCC[C@@H]1COc1nc2c(c(N3CCN4C(=O)C[C@H]4C3)n1)CCN(c1cccc3cccc(Cl)c13)C2 [Compound 12-074] |
| – | 18.6 | – | 23.4 | 16.8 | Cc1ccc2[nH]ncc2c1-c1cc2ncnc(N3CC(C(=O)N[C@H]4COC4=O)C3)c2cc1Cl [Compound 03-099] |
| 72.1 | 73.7 | 73.7 | 75.7 | 72.6 | CN1CCC[C@@H]1COc1nc2c(c(N3CCC4(CC3)COC4=O)n1)CCN(c1cccc3cccc(Cl)c13)C2 [Compound 13-005] |
| 94.0 | 6.0 | 6.0 | 5.0 | 7.0 | CN1CCC[C@@H]1COc1nc2c(c(N3C[C@@H]4OC(=O)[C@@H]4C3)n1)CCN(c1cccc3cccc(Cl)c13)C2 [Compound 12-058] |
| 42.5 | 0 | 0 | 0 | 0 | O=C1OCC12CCN(c1nc(OCC34CCCN3CCC4)nc3c(F)c(-c4cccc5cccc(Cl)c45)ncc13)CC2 [Compound 13-037] |
| – | 0 | – | 0 | – | CC1(c2cc(NCC(=O)N[C@H]3COC3=O)c(O)cc2Cl)CC1 [Compound 06-094] |
| – | 4.6 | – | 4.1 | 2.1 | Cc1ccc2[nH]ncc2c1-c1cc2ncnc(N3CCC(C(=O)N[C@H]4COC4=O)CC3)c2cc1Cl [Compound 04-022] |
| – | 1.5 | – | 2.7 | 2.1 | Cc1ccc2[nH]ncc2c1-c1cc2ncnc(N3CCC(C(=O)N[C@@H]4COC4=O)CC3)c2cc1Cl [Compound 04-023] |
| – | 0 | 0 | 0 | 0 | CC1(c2cc(NCC(=O)N3CC[C@H]4OC(=O)[C@@]4(C)C3)c(O)cc2Cl)CC1 [Compound 08-043] |
| – | 0 | – | 0 | – | CC1(c2cc(NCC(=O)N[C@@H]3COC3=O)c(O)cc2Cl)CC1 [Compound 06-095] |
| – | 0 | 0 | 0 | 0 | CC1(c2cc(NCC(=O)N3CC[C@@]4(C)C(=O)O[C@H]4C3)c(O)cc2Cl)CC1 [Compound 08-044] |

| SMILES | % covalent modification of K-Ras G12S (K-Ras(G12S)) [%] | % covalent modification of wild type K-Ras (wild type K-Ras [1]) [%] | % covalent modification of wild type K-Ras (wild type K-Ras [2]) [%] | % covalent modification of K-Ras G12D (K-Ras G12D) [%] | % covalent modification of K-Ras G12E (K-Ras G12E) [%] |
| --- | --- | --- | --- | --- | --- |
| CC(C)[C@@H]1C(=O)O[C@H]1C(=O)N1[C@@H]2CC[C@H]1CN(c1nc(OCC34CCCN3CCC4)nc3c(F)c(-c4cccc5cccc(Cl)c45)ncc13)C2 [(2R, 3S)-4] | – | 0 | – | 100 | – |
| O=C1CC(C(=O)N2[C@@H]3CC[C@H]2CN(c2nc(OCC45CCCN4CCC5)nc4c(F)c(-c5cccc6cccc(Cl)c56)ncc24)C3)O1 (some centres unmarked) [Compound 14-036] | 42.0 | 22.0 | 22.0 | 100 | 42.0 |
| O=C1C[C@H](C(=O)N2[C@@H]3CC[C@H]2CN(c2nc(OCC45CCCN4CCC5)nc4c(F)c(-c5cccc6cccc(Cl)c56)ncc24)C3)O1 [(R)-2] | – | 0 | – | 100 | – |
| C[C@@H]1C(=O)O[C@H]1C(=O)N1[C@@H]2CC[C@H]1CN(c1nc(OCC34CCCN3CCC4)nc3c(F)c(-c4cccc5cccc(Cl)c45)ncc13)C2 [(2R, 3S)-3] | – | 0 | – | 100 | – |
| C#Cc1c(F)ccc2cc(O)cc(-c3ncc4c(N5C[C@H]6CC[C@@H](C5)N6C(=O)[C@@H]5OC(=O)[C@H]5C(C)C)nc(OC[C@@]56CCCN5C[C@H](F)C6)nc4c3F)c12 [(2R, 3S)-6] | – | 0 | – | 100 | 0 |
| C#Cc1cccc2cccc(-c3ncc4c(N5C[C@H]6CC[C@@H](C5)N6C(=O)[C@@H]5OC(=O)[C@H]5C(C)C)nc(OCC56CCCN5CCC6)nc4c3F)c12 [(2R, 3S)-5] | – | 0 | – | 100 | 0 |
